From US9090645B2, “Therapeutic compositions and methods of treatment with capsianoside-type compounds” (BMB Patent Holding Corporation, priority 2006, dated 2015)
“And” between values parts separate entries of the source, which are not always exact repeats. Equal entries are not always repeated.

Legend:
[1] = test system: capsaicin-treated hindpaw; assay: Analgesic Bioassay: rat hindpaw withdrawal latency assay; assay type: in vivo, Sprague-Dawley rats; conditions: for Avg. Cmpd. @ 5 min (hindpaw withdrawal latency): 5 min after compound on capsaicin-treated hindpaw; for Avg. Cmpd. @ 5 min (hindpaw withdrawal latency) / Avg. Cmpd. @ 20 min (hindpaw withdrawal latency) / Avg. Cmpd @ 30 min (hindpaw withdrawal latency): 498: 0.27 mg, 660: 0.33 mg; for Avg. Cmpd. @ 5 min (hindpaw withdrawal latency) / Avg. Cmpd. @ 20 min (hindpaw withdrawal latency) / Avg. Cmpd @ 30 min (hindpaw withdrawal latency) / Avg. Cap. @ 20 min (hindpaw withdrawal latency) / Avg. Cap. @ 25 min (hindpaw withdrawal latency) / Avg. Cap. @ 30 min (hindpaw withdrawal latency) / Avg. All Capsaicin (hindpaw withdrawal latency) / Avg. All Baselines (hindpaw withdrawal latency): n=5; for Avg. Cmpd. @ 20 min (hindpaw withdrawal latency): 20 min after compound on capsaicin-treated hindpaw; for Avg. Cmpd @ 30 min (hindpaw withdrawal latency): 30 min after compound on capsaicin-treated hindpaw; for Avg. Cap. @ 20 min (hindpaw withdrawal latency) / Avg. Cap. @ 25 min (hindpaw withdrawal latency) / Avg. Cap. @ 30 min (hindpaw withdrawal latency) / Avg. All Capsaicin (hindpaw withdrawal latency) / Avg. All Baselines (hindpaw withdrawal latency): Table 7; for Avg. Cap. @ 20 min (hindpaw withdrawal latency): 20 min post-capsaicin; for Avg. Cap. @ 20 min (hindpaw withdrawal latency) / Avg. Cap. @ 25 min (hindpaw withdrawal latency) / Avg. Cap. @ 30 min (hindpaw withdrawal latency) / Avg. All Capsaicin (hindpaw withdrawal latency): before compound; for Avg. Cap. @ 25 min (hindpaw withdrawal latency): 25 min post-capsaicin; for Avg. Cap. @ 30 min (hindpaw withdrawal latency): 30 min post-capsaicin; for Avg. All Capsaicin (hindpaw withdrawal latency): all post-capsaicin times; for Avg. All Baselines (hindpaw withdrawal latency): before any treatment
Description: A rat hindpaw assay was used to determine the therapeutic effectiveness of various extracts/compounds as analgesics in the present invention.
Sprague-Dawley rats (225-250 g, male) were anesthetized with urethane and placed on their sides on a disposable Chux pad. Both hindpaws for each rat were blackened with India ink which was allowed to dry for 10 minutes. An ELH projector lamp calibrated to a standard mW/cm^2 was used as a pain stimulus and was condensed into an area of 5×15 mm on each hindpaw and placed perpendicular to, and 72 mm from, each hindpaw.
Multiple baseline hindpaw withdrawal latency times were recorded (in seconds) for each medial and each lateral surface of each hindpaw. Subsequently, 100 μl of 1 μmolar capsaicin was applied with a pipette to cover one hindpaw of each animal and allowed to dry for 10 minutes, rendering the capsaicin-treated hindpaw hypersensitive to pain stimulus relative to the non-capsaicin treated hindpaw (and thereby decreasing the withdrawal latency period for the capsaicin-treated hindpaw relative to the non-treated hindpaw).
Both hindpaws were then re-blackened with India ink which was allowed to dry for 10 minutes, and hindpaw withdrawal latencies were recorded for both the capsaicin-treated and untreated hindpaws on both the medial and lateral aspects of both hindpaws at 20, 25 and 30 minutes. […] By contrast, only minor drops in the withdrawal latency periods of the untreated hindpaws was seen, and the effect that was observed is believed to be due to the central mechanism effect of capsaicin-treatment on the other hindpaw.
To determine the analgesic properties of each fraction, 100 μl of each fraction were applied to the capsaicin-treated hindpaw by pipette and permitted to dry (the untreated hindpaw was not treated with the fraction). Hindpaw withdrawal latencies were then recorded at 5, 20 and 30 minutes for both the capsaicin/fraction-treated hindpaw and the untreated hindpaw. An increase in the hindpaw withdrawal time was indicative of an analgesic effect by the applied fraction.

[2] = test system: carrageenan-induced inflammation in air pouch; assay: Inflammation Bioassay: mouse air pouch assay (carrageenan), white blood cells in exudates; assay type: in vivo, mice
Description: A mouse air pouch assay was used to determine the therapeutic effectiveness of various extracts/compounds as anti-inflammatory agents in the present invention.
To induce air pouches, 10-15 week old mice were injected subcutaneously on the back with 3 ml of air.
On day 2, the pouches were reinflated with 1.5 m. of air.
On day 6, inflammation was induced by injecting 1 ml of a suspension of carrageenan (2% weight/volume in calcium-free and magnesium-free phosphate buffered saline (PBS) solution) into the air pouch.
100 μL of solution including test compounds were injected with the carrageenan (additional 100 μL of PBS were injected into the controls).
After 4 hours, the mice were sacrificed by including CO2 narcosis, the pouches were flushed with 2 ml of PBS, and exudates were harvested.
Exudates were diluted 1:1 with 0.015% methylene blue in PBS.
White blood cells were counted in a standard hemocytometer chamber (American Optical, Buffalo, N.Y.).

[3] = individual mice, 100 μL test solution injected with carrageenan, 4 hours

Row | SMILES | Avg. Cmpd. @ 5 min (hindpaw withdrawal latency) [1] | Avg. Cmpd. @ 20 min (hindpaw withdrawal latency) [1] | Avg. Cmpd @ 30 min (hindpaw withdrawal latency) [1] | Avg. Cap. @ 20 min (hindpaw withdrawal latency) [1] | Avg. Cap. @ 25 min (hindpaw withdrawal latency) [1] | Avg. Cap. @ 30 min (hindpaw withdrawal latency) [1] | Avg. All Capsaicin (hindpaw withdrawal latency) [1] | Avg. All Baselines (hindpaw withdrawal latency) [1] | Average Cells (10^6/ml) (white blood cells in exudate) ([2]; average of five mice, control mice (PBS) 2.67) | Cells (10^6/ml) (white blood cells in exudate) [2, 3] | Cells/ml (white blood cells in exudate) [2, 3] | anti-inflammatory effects compared with methotrexate and dexamethasone ([2]; mouse air pouch) | analgesic activity (in words) ([1]; Analgesic Bioassay (Example 1))
1 | C=C[C@](C)(CC/C=C(\C)CC/C=C(\C)CC(O)/C=C(\C)C(=O)O)O[C@@H]1OC(CO)[C@@H](O)C(O)C1O[C@@H]1OC(CO)[C@@H](O)C(O)C1O (stereo partly drawn) [Compound 660, capsianoside I] | 10.5 s | 9.6 s | 6.5 s | 9.5 s | 6.4 s | 5.9 s | 7.3 s | 9.5 s | 1.54 10^6/ml | 1.30 10^6/ml and 2.49 10^6/ml (2×) and 0.32 10^6/ml and 1.09 10^6/ml | 1.30E+06 Cells/ml and 2.49E+06 Cells/ml (2×) and 3.23E+05 Cells/ml and 1.09E+06 Cells/ml | comparable to 0.5-1.0 mg/kg/week of chronic methotrexate, or 1.5 mg/kg acute dose of dexamethasone | 
2 | C=C[C@](C)(CC/C=C(\C)CC/C=C(\C)CC(O)/C=C(\C)C(=O)O)O[C@@H]1OC(CO)[C@@H](O)C(O)C1O (relative stereo) [Compound 498, 14-(beta-D-glucopyranosyloxy)-4-hydroxy-2,6,10,14-tetramethyl-2,6,10,15-hexadecatetraenoic acid [4R-(2E,4R*,6E,10E,14S*)]] | 13.6 s | 9.4 s | 8.1 s | 7.4 s | 7.956 s | 5.4 s | 6.9 s | 10.77 s |  |  |  |  | strong analgesic effect
